# Measured values: ChEMBL document CHEMBL1201862, “PubChem BioAssay data set” (2004)
# The source made the active and inactive calls.
# Legend:
# Caspase-3 [1] = biological target: T1, Caspase-3 (Homo sapiens, UniProt P42574); test: activators of human procaspase-3 D3A mutant – biochemical, absorbance, PC-3 D3A mutant, counter-screen for dual procaspase-3/7 activator project, dose response (AID 504328)
# T1 sequence (P42574 whole entry): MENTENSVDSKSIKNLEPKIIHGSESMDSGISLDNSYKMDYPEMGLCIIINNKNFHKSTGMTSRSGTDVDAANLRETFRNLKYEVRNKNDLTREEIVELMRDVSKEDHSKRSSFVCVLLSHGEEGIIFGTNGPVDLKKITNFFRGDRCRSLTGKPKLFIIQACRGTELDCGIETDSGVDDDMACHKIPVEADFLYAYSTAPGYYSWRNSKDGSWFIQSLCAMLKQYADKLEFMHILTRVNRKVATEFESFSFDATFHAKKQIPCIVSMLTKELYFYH
# [2] = blockers of HIV-1 envelope-mediated cell-cell fusion – cherry-pick, dose response (AID 652057); type: functional, cell-based
# Caspase-7 [3] = biological target: T2, Caspase-7 (Homo sapiens, UniProt P55210); test: potency of procaspase-7 enzyme activation – biochemical, absorbance, human, dual procaspase-3/-7 activator project, dose response (AID 504330)
# T2 sequence (P55210 whole entry): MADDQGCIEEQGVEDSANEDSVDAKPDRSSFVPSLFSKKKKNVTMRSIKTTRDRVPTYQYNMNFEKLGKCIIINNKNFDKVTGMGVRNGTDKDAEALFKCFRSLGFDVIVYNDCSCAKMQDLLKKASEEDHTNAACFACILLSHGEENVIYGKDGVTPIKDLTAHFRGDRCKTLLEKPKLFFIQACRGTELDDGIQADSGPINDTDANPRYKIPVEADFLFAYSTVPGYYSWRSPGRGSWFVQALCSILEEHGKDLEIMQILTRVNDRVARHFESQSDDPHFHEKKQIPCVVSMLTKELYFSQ
# Cytochrome P450 2D6 = Cytochrome P450 2D6 (Homo sapiens, UniProt P10635);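 note: CYP2D6 member of a cytochrome P450 panel assay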
# Chain of Cytochrome P450 2D6 (P10635 whole entry): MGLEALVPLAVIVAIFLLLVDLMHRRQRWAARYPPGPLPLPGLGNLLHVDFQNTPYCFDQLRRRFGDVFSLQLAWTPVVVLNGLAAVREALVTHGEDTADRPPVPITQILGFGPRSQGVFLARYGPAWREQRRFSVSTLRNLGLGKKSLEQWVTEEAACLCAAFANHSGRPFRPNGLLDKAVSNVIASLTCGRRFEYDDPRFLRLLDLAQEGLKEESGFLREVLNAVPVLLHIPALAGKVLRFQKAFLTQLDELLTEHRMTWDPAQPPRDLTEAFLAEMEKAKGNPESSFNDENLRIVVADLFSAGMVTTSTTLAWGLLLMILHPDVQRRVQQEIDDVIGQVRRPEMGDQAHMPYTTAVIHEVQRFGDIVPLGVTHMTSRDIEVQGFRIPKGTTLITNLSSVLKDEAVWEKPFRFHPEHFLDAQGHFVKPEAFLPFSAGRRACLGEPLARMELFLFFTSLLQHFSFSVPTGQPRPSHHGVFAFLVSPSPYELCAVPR
# [4] = biological target: Potassium voltage-gated channel subfamily KQT member 2 (Rattus norvegicus, UniProt O88943); test: potentiation of rat KCNQ2 current – cell-based, retigabine-insensitive compounds, dose response (AID 2654); type: functional
# Chain of Potassium voltage-gated channel subfamily KQT member 2 (O88943 whole entry): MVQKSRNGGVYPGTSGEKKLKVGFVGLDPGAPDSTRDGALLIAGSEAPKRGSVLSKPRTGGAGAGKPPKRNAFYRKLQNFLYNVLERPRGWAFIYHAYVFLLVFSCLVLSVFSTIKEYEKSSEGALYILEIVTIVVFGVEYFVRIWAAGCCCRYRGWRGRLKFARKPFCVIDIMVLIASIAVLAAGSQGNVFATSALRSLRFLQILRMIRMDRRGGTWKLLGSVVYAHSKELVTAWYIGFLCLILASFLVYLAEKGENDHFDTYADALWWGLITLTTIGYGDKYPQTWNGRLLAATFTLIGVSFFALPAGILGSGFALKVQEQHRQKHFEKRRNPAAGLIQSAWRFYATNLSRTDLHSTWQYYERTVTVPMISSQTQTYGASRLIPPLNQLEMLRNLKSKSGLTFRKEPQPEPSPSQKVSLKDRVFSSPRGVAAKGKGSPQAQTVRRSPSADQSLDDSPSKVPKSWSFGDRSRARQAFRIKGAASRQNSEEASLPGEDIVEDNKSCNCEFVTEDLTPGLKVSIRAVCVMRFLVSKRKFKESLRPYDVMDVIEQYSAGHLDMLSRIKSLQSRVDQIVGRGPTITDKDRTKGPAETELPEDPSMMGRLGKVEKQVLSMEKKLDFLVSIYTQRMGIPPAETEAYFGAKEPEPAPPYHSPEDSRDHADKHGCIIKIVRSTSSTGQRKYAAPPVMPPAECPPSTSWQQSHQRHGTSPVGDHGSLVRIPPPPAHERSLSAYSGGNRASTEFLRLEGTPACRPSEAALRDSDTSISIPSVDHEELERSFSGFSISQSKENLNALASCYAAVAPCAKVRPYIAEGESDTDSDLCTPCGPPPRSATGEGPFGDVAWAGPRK
# [5] = NIH-3T3 fibroblast cytotoxicity, dose response, cytotoxicity control, cell-based, fluorescence, Alamar Blue, secondary assay (AID 2327); type: functional;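 note: NIH-3T3 mouse fibroblasts cultured with fluconazole at 8 µg/mL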
# [6] = fluconazole-exposed Candida albicans growth modulators – fluorescence, retest, confirmation (AID 2467); type: functional, cell-based
# [7] = biological target: T3, RNA-binding protein pos-1 (Caenorhabditis elegans, UniProt G5EF15); test: disruptors of C. elegans POS-1 RNA interaction – biochemical, fluorescence polarization, dose response (AID 1964);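 note: purified POS-1 fused to maltose binding protein made in E. coli; potency of compounds blocking POS-1 binding to fluorescent RNA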
# T3 sequence (G5EF15 whole entry): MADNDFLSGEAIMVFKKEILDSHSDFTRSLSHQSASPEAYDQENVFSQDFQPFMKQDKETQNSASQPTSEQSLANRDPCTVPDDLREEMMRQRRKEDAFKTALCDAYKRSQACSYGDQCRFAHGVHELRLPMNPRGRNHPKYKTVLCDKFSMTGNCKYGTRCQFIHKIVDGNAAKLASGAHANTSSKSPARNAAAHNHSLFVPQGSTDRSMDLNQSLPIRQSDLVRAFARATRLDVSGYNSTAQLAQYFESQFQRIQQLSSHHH
# [8] = biological target: T4, Apoptotic protease-activating factor 1 (Homo sapiens, UniProt O14727); type: functional
# T4 sequence (O14727 whole entry): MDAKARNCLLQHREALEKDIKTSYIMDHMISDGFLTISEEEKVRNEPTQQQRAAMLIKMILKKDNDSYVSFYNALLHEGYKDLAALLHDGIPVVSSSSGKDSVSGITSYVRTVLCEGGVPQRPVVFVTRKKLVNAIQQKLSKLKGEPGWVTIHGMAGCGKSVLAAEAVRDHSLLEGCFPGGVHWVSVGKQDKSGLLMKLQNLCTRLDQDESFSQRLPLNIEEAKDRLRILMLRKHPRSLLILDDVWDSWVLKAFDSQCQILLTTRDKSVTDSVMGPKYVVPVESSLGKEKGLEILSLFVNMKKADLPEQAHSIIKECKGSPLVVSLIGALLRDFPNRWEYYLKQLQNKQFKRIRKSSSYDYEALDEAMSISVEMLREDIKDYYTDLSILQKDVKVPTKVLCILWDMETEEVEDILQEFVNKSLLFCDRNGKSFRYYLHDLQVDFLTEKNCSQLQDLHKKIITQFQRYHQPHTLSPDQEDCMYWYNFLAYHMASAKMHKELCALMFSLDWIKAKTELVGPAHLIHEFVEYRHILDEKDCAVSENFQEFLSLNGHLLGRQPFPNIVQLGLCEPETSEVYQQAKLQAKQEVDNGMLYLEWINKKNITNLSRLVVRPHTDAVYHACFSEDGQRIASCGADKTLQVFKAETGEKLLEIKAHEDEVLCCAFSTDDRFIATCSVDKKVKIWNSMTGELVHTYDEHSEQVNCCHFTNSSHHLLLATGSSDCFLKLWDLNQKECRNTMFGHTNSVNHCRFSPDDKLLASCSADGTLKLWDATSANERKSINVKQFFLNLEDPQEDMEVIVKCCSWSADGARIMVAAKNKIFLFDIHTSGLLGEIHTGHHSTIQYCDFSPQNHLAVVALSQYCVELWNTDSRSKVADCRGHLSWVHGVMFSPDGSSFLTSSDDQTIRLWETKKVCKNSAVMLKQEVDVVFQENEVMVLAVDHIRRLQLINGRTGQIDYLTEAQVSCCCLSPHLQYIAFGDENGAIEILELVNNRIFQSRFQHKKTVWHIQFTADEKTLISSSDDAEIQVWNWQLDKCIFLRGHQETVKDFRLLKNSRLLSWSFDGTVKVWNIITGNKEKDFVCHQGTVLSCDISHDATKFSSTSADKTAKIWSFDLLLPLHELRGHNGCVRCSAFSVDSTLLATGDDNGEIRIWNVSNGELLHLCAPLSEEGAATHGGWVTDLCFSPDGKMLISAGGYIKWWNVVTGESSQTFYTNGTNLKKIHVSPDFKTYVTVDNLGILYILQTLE
# Caspase-8 = Caspase-8 (Homo sapiens, UniProt Q14790); test: inhibitors of purified CASP8 protease – biochemical, Z-IETD-R110 fluorescence, cherry-picked samples, selectivity assay for caspase-6 inhibitor project, dose response (AID 743294)
# Chain of Caspase-8 (Q14790 217-374 limits assumed): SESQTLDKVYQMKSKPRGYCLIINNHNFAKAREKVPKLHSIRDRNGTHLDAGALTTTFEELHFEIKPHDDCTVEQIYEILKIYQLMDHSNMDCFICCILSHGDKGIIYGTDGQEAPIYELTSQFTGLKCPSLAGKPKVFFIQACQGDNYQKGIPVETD
# Chain of Caspase-8 (Q14790 385-479 limits assumed): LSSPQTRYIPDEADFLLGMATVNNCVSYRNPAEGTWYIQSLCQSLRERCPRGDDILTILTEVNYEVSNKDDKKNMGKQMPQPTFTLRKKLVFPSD
# Caspase-3 [9] = biological target: T1, Caspase-3; test: human caspase-3 protease activity blockade – biochemical, fluorescence, cherry-picked samples, selectivity assay for caspase-6 allosteric inhibitor project, dose response (AID 743291)
# [10] = biological target: T5, Zinc finger protein mex-5 (Caenorhabditis elegans, UniProt Q9XUB2); test: potency of MEX-5 RNA-binding blockers – biochemical, C. elegans, fluorescence polarization, dose response (AID 1960)
# T5 sequence (Q9XUB2 whole entry): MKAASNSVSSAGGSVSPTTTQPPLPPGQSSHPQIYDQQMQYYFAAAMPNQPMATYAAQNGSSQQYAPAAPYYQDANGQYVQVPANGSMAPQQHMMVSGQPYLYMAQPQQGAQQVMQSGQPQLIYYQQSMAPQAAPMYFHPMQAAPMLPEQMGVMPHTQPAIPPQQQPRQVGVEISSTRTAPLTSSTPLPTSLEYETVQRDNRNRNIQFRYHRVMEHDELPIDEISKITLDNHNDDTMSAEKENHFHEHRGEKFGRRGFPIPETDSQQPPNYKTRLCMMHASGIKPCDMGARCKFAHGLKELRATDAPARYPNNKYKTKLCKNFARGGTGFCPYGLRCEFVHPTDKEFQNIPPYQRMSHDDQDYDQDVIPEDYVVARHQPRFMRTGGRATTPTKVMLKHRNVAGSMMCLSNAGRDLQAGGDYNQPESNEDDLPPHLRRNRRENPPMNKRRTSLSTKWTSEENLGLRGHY
# Caspase-7 [11] = biological target: T2, Caspase-7; test: caspase-7 enzyme inhibition, selectivity check – biochemical, DEVD-R110 fluorescence, cherry-pick, selectivity assay for caspase-6 inhibitor project, dose response (AID 743295); type: functional
# [12] = biological target: G-protein coupled receptor 35 (Homo sapiens, UniProt Q9HC97); test: inhibition of zaprinast-stimulated GPR35 beta-arrestin translocation – imaging, U2OS, beta-arrestin-GFP, zaprinast agonist, primary screen (AID 2058); type: functional;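 note: antagonist potency meaning inhibition of agonist-induced arrestin redistribution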
# Chain of G-protein coupled receptor 35 (Q9HC97 whole entry): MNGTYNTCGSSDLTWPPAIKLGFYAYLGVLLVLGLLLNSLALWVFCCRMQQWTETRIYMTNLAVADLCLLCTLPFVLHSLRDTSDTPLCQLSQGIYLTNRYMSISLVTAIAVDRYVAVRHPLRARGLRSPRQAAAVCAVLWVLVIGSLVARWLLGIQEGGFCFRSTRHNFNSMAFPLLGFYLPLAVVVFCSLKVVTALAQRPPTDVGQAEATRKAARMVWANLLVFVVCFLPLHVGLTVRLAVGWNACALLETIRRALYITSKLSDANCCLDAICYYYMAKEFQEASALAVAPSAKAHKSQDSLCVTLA
# [13] = loss of viability in HepG2 cells – cell-based, CellTiter-Glo, cherry-picked, cytotoxicity control for Shn3 inhibitor project, dose response (AID 624134); type: functional
# Caspase-6 = biological target: T6, Caspase-6 (Homo sapiens, UniProt P55212); test: inhibition of CASP6 peptide cleavage – biochemical, VEID-R110 fluorescence, cherry-pick, dose response (AID 720632)
# T6 sequence (P55212 whole entry): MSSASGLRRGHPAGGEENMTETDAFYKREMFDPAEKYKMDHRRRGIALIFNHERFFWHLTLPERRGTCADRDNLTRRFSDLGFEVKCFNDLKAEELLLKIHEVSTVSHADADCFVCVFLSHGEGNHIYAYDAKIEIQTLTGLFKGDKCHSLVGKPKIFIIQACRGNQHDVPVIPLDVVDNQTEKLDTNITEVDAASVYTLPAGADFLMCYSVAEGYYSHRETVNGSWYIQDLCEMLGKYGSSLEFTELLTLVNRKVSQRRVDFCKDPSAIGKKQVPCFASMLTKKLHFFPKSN
# [14] = non-specific 3'UTR reporter inhibition in Clone20-Shn3RL – cell-based, Renilla luciferase, cherry-picked, counter-screen for Shn3 inhibitor project, dose response (AID 624133); type: functional
# [15] = reduction of Shn3 3'UTR-driven luciferase in osteoblasts – cell-based, Clone20 osteoblasts, firefly luciferase, cherry-picked, dose response (AID 624132); type: functional;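 note: firefly luciferase luminescence from reporter carrying the Shn3 3'UTR in osteoblasts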
# 14-3-3 protein gamma = 14-3-3 protein gamma (Homo sapiens, UniProt P61981); test: modulators of 14-3-3 gamma client binding – dose response (AID 711); type: functional
# Chain of 14-3-3 protein gamma (P61981 whole entry): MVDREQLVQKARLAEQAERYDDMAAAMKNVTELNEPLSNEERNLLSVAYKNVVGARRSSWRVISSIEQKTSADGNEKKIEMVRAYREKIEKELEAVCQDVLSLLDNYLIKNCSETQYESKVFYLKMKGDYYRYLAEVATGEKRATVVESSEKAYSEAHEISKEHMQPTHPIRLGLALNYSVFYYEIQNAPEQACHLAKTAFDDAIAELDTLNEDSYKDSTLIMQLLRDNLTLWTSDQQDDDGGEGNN
# Genome polyprotein = Genome polyprotein (dengue virus type 2, UniProt P29990); test: flavivirus cap methylation enzyme inhibition – biochemical, confirmation dose response, primary screen (AID 588689); type: functional
# Chain of Genome polyprotein (P29990 2492-3391 limits assumed): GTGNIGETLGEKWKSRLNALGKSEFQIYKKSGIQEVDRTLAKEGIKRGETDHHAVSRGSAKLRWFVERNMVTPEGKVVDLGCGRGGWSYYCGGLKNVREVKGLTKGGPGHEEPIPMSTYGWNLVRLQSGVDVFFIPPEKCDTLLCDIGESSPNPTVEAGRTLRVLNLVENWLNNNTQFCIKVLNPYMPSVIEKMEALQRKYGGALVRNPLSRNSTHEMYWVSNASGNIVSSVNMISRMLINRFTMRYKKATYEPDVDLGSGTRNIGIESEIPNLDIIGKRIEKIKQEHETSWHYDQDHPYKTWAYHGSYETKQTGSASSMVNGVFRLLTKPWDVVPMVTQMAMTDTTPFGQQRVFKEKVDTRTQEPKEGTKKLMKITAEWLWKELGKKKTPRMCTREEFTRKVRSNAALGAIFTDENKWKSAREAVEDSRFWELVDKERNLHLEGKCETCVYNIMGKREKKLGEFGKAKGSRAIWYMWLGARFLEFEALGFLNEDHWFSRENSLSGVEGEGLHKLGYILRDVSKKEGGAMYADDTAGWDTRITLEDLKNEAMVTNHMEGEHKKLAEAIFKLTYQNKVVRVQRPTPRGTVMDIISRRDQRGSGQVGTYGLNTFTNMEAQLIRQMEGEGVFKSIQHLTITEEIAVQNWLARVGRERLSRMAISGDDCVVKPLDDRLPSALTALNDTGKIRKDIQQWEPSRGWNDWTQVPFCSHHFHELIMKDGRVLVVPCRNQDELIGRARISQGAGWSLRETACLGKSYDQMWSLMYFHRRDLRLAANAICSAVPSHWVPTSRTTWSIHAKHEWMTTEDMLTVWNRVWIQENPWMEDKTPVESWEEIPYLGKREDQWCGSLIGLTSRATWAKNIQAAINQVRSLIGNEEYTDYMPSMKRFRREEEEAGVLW
# Protein Rev = Protein Rev (Human immunodeficiency virus type 1 group M subtype B (isolate HXB2)(HIV-1), UniProt P04618); test: blockers of HIV Rev/RRE RNA complex – biochemical, fluorescence polarization, HIV-1, dose response (AID 434976); design: species or system Human immunodeficiency virus 1
# Chain of Protein Rev (P04618 whole entry): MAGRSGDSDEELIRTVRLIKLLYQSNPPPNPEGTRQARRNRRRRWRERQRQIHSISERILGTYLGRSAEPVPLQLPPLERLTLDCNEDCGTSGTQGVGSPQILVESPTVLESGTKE
# [16] = biological target: Female germline-specific tumor suppressor gld-1 (Caenorhabditis elegans, UniProt Q17339); test: blockers of GLD-1/TGE RNA complex formation – biochemical, fluorescence polarization, C. elegans, dose response (AID 2802);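 note: fluorescence polarization of labeled TGE RNA bound by purified gld-1 protein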
# Chain of Female germline-specific tumor suppressor gld-1 (Q17339 whole entry): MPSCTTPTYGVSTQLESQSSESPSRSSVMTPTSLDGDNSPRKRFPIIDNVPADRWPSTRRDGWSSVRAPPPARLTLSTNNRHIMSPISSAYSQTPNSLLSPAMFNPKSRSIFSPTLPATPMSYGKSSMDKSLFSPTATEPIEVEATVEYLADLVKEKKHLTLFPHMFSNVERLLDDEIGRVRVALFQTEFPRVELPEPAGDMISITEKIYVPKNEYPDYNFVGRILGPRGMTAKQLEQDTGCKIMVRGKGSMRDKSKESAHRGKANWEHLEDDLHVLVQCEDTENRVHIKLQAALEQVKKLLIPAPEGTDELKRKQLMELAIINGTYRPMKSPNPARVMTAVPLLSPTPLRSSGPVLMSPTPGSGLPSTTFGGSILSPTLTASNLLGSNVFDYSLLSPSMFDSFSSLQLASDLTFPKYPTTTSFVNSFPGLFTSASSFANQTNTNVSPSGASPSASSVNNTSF
# [17] = biological target: T7, Long-chain-fatty-acid--AMP ligase FadD28 (Mycobacterium tuberculosis, UniProt P9WQ59); test: Fluorescence polarization aasay to screen for inhibitors that compete for the binding of FadD28 to a bisubstrate Measured in Biochemical System Using Plate Reader - 2147-01_Inhibitor_Dose_CherryPick_Activity.; type: functional, Mycobacterium tuberculosis H37Rv
# T7 sequence (P9WQ59 whole entry): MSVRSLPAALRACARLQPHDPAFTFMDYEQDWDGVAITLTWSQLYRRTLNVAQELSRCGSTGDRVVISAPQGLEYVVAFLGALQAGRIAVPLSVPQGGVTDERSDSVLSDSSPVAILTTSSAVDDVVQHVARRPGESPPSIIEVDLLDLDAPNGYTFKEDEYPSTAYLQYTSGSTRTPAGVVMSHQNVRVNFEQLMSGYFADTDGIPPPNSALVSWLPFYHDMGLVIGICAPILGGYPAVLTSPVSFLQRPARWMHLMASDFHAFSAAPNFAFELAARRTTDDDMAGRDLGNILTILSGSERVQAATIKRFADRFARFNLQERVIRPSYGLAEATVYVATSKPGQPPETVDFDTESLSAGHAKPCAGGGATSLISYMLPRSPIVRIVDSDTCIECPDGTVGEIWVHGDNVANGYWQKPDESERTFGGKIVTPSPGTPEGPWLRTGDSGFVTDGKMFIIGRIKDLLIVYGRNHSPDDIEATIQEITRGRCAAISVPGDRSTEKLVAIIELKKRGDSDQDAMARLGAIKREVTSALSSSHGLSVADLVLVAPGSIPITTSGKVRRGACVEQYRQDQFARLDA
structure (smiles),measurement,setting,value
COc1ccc(Nc2ncc(C(=O)N3CCN(c4ccc(F)cc4)CC3)c3ccccc23)cc1,EC50,Caspase-3 [1],> 85.2 µM (inactive)
same,AC50,[2],49 µM (active)
same,EC50,Caspase-7 [3],> 85.2 µM (inactive)
same,AC50,Cytochrome P450 2D6,31.6 µM (inconclusive)
Cc1ccc(NC(=O)Nc2cccnc2)cc1,EC50,[4],128 µM (active)
CCOc1ccc2nc3cc(NCc4ccc(OC)cc4)ccc3c(N)c2c1,EC50,[5],> 150 µM (inconclusive)
same,EC50,[6],2.76 µM (active)
same,EC50,[7],4.47 µM (active)
same,IC50,[8],23.5 µM (active)
same,AC50,Caspase-8,25.9 µM (active)
same,AC50,Caspase-3 [9],21.2 µM (active)
same,EC50,[10],3.94 µM (active)
same,AC50,Caspase-7 [11],9.75 µM (active)
same,IC50,[12],15.3 µM (inactive)
same,AC50,[13],16.5 µM (active)
same,AC50,Caspase-6,4.3 µM (active)
same,AC50,[14],23 µM (active)
same,AC50,[15],6.69 µM (active)
CCn1c(CSc2nnc3ccccn23)nc2cc(C(=O)O)ccc21,IC50,14-3-3 protein gamma,0.853 µM (active)
same,IC50,Genome polyprotein,23.2 µM (active)
same,IC50,Protein Rev,> 75.4 µM (not active)
same,IC50,[16],11.2 µM (inactive)
same,AC50,[17],50.1 µM (active)
